Holding throughout (assay type): cell-based
Assay [1] has as its system SW480 colon cancer cells. Nature of the assay: Cell viability assay (CellTiter-Blue), SW480 colon cancer cells. The note with it: Homo sapiens, 96 h, four days; for EC50: CellTiter-Blue; for inhibition at 10 µM: given where EC50 >10 μM, read-out: percent inhibition at 10 μM. The method in brief:
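SW480 cells (~2×10^3/well) exposed four days at 37 °C to 8-point 1:3 dilutions, 10 μM down to 0.0045 μM. Viability from resazurin reduction (CellTiter-Blue, ~3 h, Ex 560/Em 590); EC50 by non-linear regression, or percent inhibition at 10 μM where EC50 exceeds 10 μM.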
For orientation: The colour change of resazurin is a common sign of viable cells or microbes.

Assay [2] relates to Wnt activity (Sp5-Luc reporter, SW480 colon carcinoma cells). Nature of the assay: Wnt activity screening assay: Sp5-Luc reporter gene in SW480 colon carcinoma cells. The note with it: Homo sapiens; for EC50: overnight incubation, 10-point curve from 10 μM. The method in brief: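 First, hygromycin-selected SW480 Sp5-Luc reporter cells are seeded in medium with 1% fetal bovine serum and exposed overnight to compound (up to 10 μM, 0.1% DMSO). Next, luciferase signal is read by luminescence. Finally, EC50 is fitted, or percent inhibition at 10 μM is reported above 10 μM.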

Assay [3] deals with IL-6 (THP-1 cells). The experiment in a line: IL-6 inhibition in LPS-stimulated THP-1 human monocyte cells (HTRF). The note with it: LPS 500 ng/mL; for EC50: 22 hours, IL6 HTRF; for inhibition at 10 µM: given where EC50 >10 μM, read-out: percent inhibition at 10 μM. The method in brief:
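THP-1 cells, serum-reduced (1% FBS) for 24 h, were preincubated with compound (10-point 1:3 series from 10 μM, 0.1% DMSO) for 2 h, then stimulated with 500 ng/mL LPS for 22 h at 37° C. IL-6 was read by HTRF (665/620 nm ratio) and normalized to DMSO. EC50 from four-parameter fit; % inhibition at 10 μM given if EC50 >10 μM.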
(TR-FRET usually uses a lanthanide donor and a delayed reading to cut background.)

Structures are written as SMILES.

As usually defined, the EC50 is the concentration at which the effect is half-maximal. A lower EC50 goes with an effect from little substance. One may read the inhibition as the drop in the measured response relative to a control, in per cent. As to `Fc1cccc(-c2cccc3[nH]c(-c4n[nH]c5ccc(-c6cncc(OCc7ccccc7)c6)nc45)cc23)c1` [Compound 546, 5-(5-(Benzyloxy)pyridin-3-yl)-3-(4-(3-fluorophenyl)-1H-indol-2-yl)-1H-pyrazolo[4,3-b]pyridine], the EC50 in assay [1] is more than 10000 nM; in assay [2], 2660 nM; in assay [3], 2910 nM. Further, the inhibition at 10 µM in assay [1] turned out to be 18.1%.
Regarding `c1cc(-c2ccncc2)c2cc(-c3n[nH]c4ccc(-c5cncc(OCCN6CCCC6)c5)nc34)[nH]c2c1` [Compound 606, 3-(4-(Pyridin-4-yl)-1H-indol-2-yl)-5-(5-(2-(pyrrolidin-1-yl)ethoxy)pyridin-3-yl)-1H-pyrazolo[4,3-b]pyridine], the EC50 in assay [1] was determined as 1880 nM; in assay [2], 4990 nM; in assay [3], 27 nM.
Take `O=C(CC1CCNCC1)Nc1cncc(-c2ccc3[nH]nc(-c4cc5c(-c6ccccn6)cccc5[nH]4)c3n2)c1` [Compound 621, 2-(Piperidin-4-yl)-N-(5-(3-(4-(pyridin-2-yl)-1H-indol-2-yl)-1H-pyrazolo[4,3-b]pyridin-5-yl)pyridin-3-yl)acetamide]: the EC50 in assay [1] was more than 10000 nM; in assay [2], 1600 nM; in assay [3], 52 nM. In addition, in assay [1], the inhibition at 10 µM worked out at 51%.
For the molecule `c1cc(N2CCCCC2)c2cc(-c3n[nH]c4ccc(-c5cncc(OC6CCNCC6)c5)nc34)[nH]c2c1` [Compound 636, 3-(4-(Piperidin-1-yl)-1H-indol-2-yl)-5-(5-(piperidin-4-yloxy)pyridin-3-yl)-1H-pyrazolo[4,3-b]pyridine], the EC50 in assay [1] amounted to 3940 nM; in assay [2], 2390 nM; in assay [3] it was 1980 nM.
For the molecule `c1cc(-c2ccoc2)c2cc(-c3n[nH]c4ccc(-c5cn[nH]c5)nc34)[nH]c2c1` [Compound 711, 3-(4-(Furan-3-yl)-1H-indol-2-yl)-5-(1H-pyrazol-4-yl)-1H-pyrazolo[4,3-b] pyridine], the EC50 is more than 10000 nM in assay [1], 8160 nM in assay [2] and 72 nM in assay [3]. For the same molecule, in assay [1], the inhibition at 10 µM was 12.4%.
For `c1cc(-c2ccoc2)c2cc(-c3n[nH]c4ccc(-c5cncc(OC6CCCCC6)c5)nc34)[nH]c2c1` [Compound 715, 5-(5-(Cyclohexyloxy)pyridin-3-yl)-3-(4-(furan-3-yl)-1H-indol-2-yl)-1H-pyrazolo[4,3-b]pyridine], the results for the EC50 in assay [1], in assay [2] and in assay [3] were more than 10000 nM, 6490 nM and more than 10000 nM, respectively. For the same molecule, the values for the inhibition at 10 µM in assay [1] and in assay [3] were 10.4% and 36.2%, respectively.
On to `Oc1cncc(-c2ccc3[nH]nc(-c4cc5c(-c6cccs6)cccc5[nH]4)c3n2)c1` [Compound 737, 5-(3-(4-(Thiophen-2-yl)-1H-indol-2-yl)-1H-pyrazolo[4,3-b]pyridin-5-yl) pyridin-3-ol], for which the EC50 in assay [1] is more than 10000 nM; in assay [2], more than 10000 nM; in assay [3], 347 nM. The inhibition at 10 µM came to 0% in assay [1] and 3.3% in assay [2] (given where EC50 >10 μM, 10 μM, read-out: percent inhibition at 10 μM).
For `c1cnc2cc(-c3n[nH]c4ccc(-c5cn[nH]c5)nc34)[nH]c2c1` [Compound 1021, 5-(1H-Pyrazol-4-yl)-3-(1H-pyrrolo[3,2-b]pyridin-2-yl)-1H-pyrazolo[4,3-b] pyridine], the figures for the EC50 in assay [1], in assay [2] and in assay [3] were 1290 nM, 767 nM and more than 10000 nM, respectively. Further, the inhibition at 10 µM in assay [3] amounted to 0%.
Consider `Oc1cncc(-c2ccc3[nH]nc(-c4cc5ncccc5[nH]4)c3n2)c1` [Compound 1031, 5-(3-(1H-Pyrrolo[3,2-b]pyridin-2-yl)-1H-pyrazolo[4,3-b]pyridin-5-yl) pyridin-3-ol], for which the values for the EC50 in assay [1], in assay [2] and in assay [3] were 4380 nM, 883 nM and 91 nM, respectively.

Values taken from US10226453B2, “3-(1H-indol-2-yl)-1H-pyrazolo[4,3-B]pyridines and therapeutic uses thereof” (Samumed, LLC, priority 2015, dated 2019).
